The values below come from ChEMBL document CHEMBL1201862, “PubChem BioAssay data set” (2004).

Test systems include 786-0; A498; ACHN; CAKI-1; HCC 2998; LOX IMVI; Malme-3M; NCI-H522; OVCAR-4; OVCAR-8; RXF 393; SF-268; SK-MEL-5; SK-OV-3; SN12C; SNB-75; HT-29.
Common to all, as to test: NCI anticancer screen, dose series, 48 h

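These data come from cells grown in 96-well plates and exposed to compound for 48 hours at five concentrations. The concentration for 50% growth inhibition is given as GI50.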 Calls of active or inactive are those of the source. No stated cut-off is given here; in the data, active = GI50 up to about 1.1 µM and inactive = higher.

`Cc1ccc(NC(=O)CC2Sc3ccccc3NC2=O)c(C)c1` (stereo not drawn): the GI50 is 13.7 µM (inactive) in the assay on 786-0; 14 µM (inactive) in the assay with A498; 18.8 µM (inactive) with ACHN; 21.5 µM (inactive) in the assay on CAKI-1; 11 µM (inactive) in the assay with HCC 2998; 19.6 µM (inactive) in the assay with LOX IMVI. Also, the GI50 in the assay with Malme-3M is 14.7 µM (inactive); with NCI-H522, 11.4 µM (inactive); in the assay with OVCAR-4, 22 µM (inactive); in the assay on OVCAR-8 it was 18.5 µM (inactive); with RXF 393, 14 µM (inactive); in the assay with SF-268, 21.4 µM (inactive). The GI50 in the assay on SK-MEL-5 was 6.97 µM (inactive); in the assay on SK-OV-3 it was 15.5 µM (inactive); with SN12C, 38.2 µM (inactive); with SNB-75, 4.52 µM (inactive).

`NC(CCSCC(F)F)C(=O)O` (stereo not drawn): the GI50 in the assay on 786-0, with A498, with ACHN, with CAKI-1, in the assay on HCC 2998 and in the assay with HT-29 was > 100 µM (inactive) throughout. The GI50 in the assay on LOX IMVI, in the assay with Malme-3M, with NCI-H522, in the assay with OVCAR-4, with OVCAR-8 and with RXF 393 was > 100 µM (inactive) in each case. The GI50 in the assay on SF-268, in the assay with SK-MEL-5, in the assay on SN12C and with SNB-75 was > 100 µM (inactive) throughout.

`COc1ccc(O)c2c(=O)ccccc12`: the GI50 in the assay with 786-0, with A498, with ACHN, with HCC 2998, in the assay with HT-29 and in the assay on LOX IMVI was > 100 µM (inactive) throughout. The GI50 is > 100 µM (inactive) in the assay on Malme-3M; 28.8 µM (inactive) in the assay on NCI-H522; > 100 µM (inactive) with OVCAR-4; > 100 µM (inactive) in the assay with OVCAR-8; 4.79 µM (inactive) in the assay on RXF 393; > 100 µM (inactive) in the assay on SF-268. In addition, the GI50 with SK-MEL-5, with SK-OV-3, with SN12C and in the assay on SNB-75 was > 100 µM (inactive) throughout.

With `COc1cc([C@@H]2c3cc4c(cc3[C@@H](NC(=O)c3cccc(F)c3)C3COC(=O)[C@@H]32)OCO4)cc(OC)c1O` (stereo partly drawn), the GI50 was 0.441 µM (active) in the assay with 786-0; 1.27 µM (inactive) in the assay with A498; 0.125 µM (active) with ACHN; 0.646 µM (active) with CAKI-1; 2.66 µM (inactive) with HCC 2998; 2.05 µM (inactive) in the assay with HT-29. Also, the GI50 with LOX IMVI was 0.698 µM (active); in the assay on Malme-3M, 1.29 µM (inactive); with NCI-H522, 1.4 µM (inactive); in the assay with OVCAR-4, 38.5 µM (inactive); in the assay on OVCAR-8, 1.76 µM (inactive); with RXF 393 it was 4.3 µM (inactive). Also, the GI50 was 1.61 µM (inactive) in the assay with SF-268; 1.14 µM (inactive) in the assay with SK-MEL-5; 1.26 µM (inactive) in the assay on SK-OV-3; 0.314 µM (active) in the assay on SN12C; 1.23 µM (inactive) with SNB-75.

For the compound `COC(=O)C1(O)c2ccccc2N=C2C1CCN2C` (stereo not drawn), the GI50 in the assay on 786-0, with A498, in the assay on ACHN, with CAKI-1, with HCC 2998 and with HT-29 was > 100 µM (inactive) in each case. Besides, the GI50 in the assay on LOX IMVI, in the assay on Malme-3M, in the assay on NCI-H522, in the assay on OVCAR-4, in the assay on OVCAR-8 and in the assay with RXF 393 was > 100 µM (inactive) each time. In addition, the GI50 in the assay on SF-268 was > 100 µM (inactive); in the assay with SK-MEL-5, > 100 µM (inactive); in the assay with SK-OV-3, > 100 µM (inactive); with SN12C, > 100 µM (inactive); with SNB-75, 26.8 µM (inactive).

On to `O=C1C2Nc3ccccc3SC2C(=O)N1c1ccc(Br)cc1` (stereo not drawn), for which the GI50 in the assay with 786-0 is 18.9 µM (inactive); in the assay with A498, 26 µM (inactive); in the assay on ACHN, 17.6 µM (inactive); in the assay with HCC 2998 it was 45.8 µM (inactive); in the assay on HT-29 it was 36.1 µM (inactive); in the assay with LOX IMVI, 27.9 µM (inactive). Further, the GI50 in the assay on Malme-3M is 27.2 µM (inactive); with NCI-H522, 21.7 µM (inactive); in the assay on OVCAR-4 it was 12.8 µM (inactive); in the assay with OVCAR-8 it was 37.4 µM (inactive); in the assay on RXF 393, 18.2 µM (inactive); in the assay on SF-268, 73.1 µM (inactive). Also, the GI50 with SK-MEL-5 was 16.2 µM (inactive); in the assay with SK-OV-3, 15.6 µM (inactive); with SN12C it was 35.9 µM (inactive); with SNB-75 it was 24.5 µM (inactive).

In the case of `CCN(CC)CC(C(=O)Nc1c(C)cccc1C)/C(C)=N\NC(=S)NN` (stereo not drawn), the GI50 with 786-0, with A498, in the assay with ACHN, in the assay on HCC 2998, in the assay with HT-29 and in the assay on LOX IMVI was > 100 µM (inactive) each time. Besides, the GI50 in the assay with Malme-3M, in the assay with NCI-H522, with OVCAR-8, with RXF 393, with SF-268 and with SK-MEL-5 was > 100 µM (inactive) each time. Besides, the GI50 in the assay with SK-OV-3 and in the assay with SNB-75 was > 100 µM (inactive) each time.

For `N#CCc1nc2c(s1)C(=O)c1ccccc1C2=O`, the GI50 with 786-0 was 16.4 µM (inactive); in the assay with A498, 32.7 µM (inactive); in the assay with ACHN it was 14.1 µM (inactive); with CAKI-1, 22.2 µM (inactive); in the assay on HCC 2998, 19.9 µM (inactive); in the assay on HT-29 it was 22.8 µM (inactive). Also, the GI50 in the assay on LOX IMVI is 13.5 µM (inactive); with Malme-3M, 19.9 µM (inactive); in the assay with NCI-H522 it was 14.7 µM (inactive); in the assay with OVCAR-4, 16.9 µM (inactive); in the assay on OVCAR-8 it was 10.8 µM (inactive); in the assay with RXF 393, 30.6 µM (inactive). In addition, the GI50 in the assay on SF-268 was 15.9 µM (inactive); in the assay on SK-MEL-5, 11.4 µM (inactive); in the assay on SK-OV-3 it was > 100 µM (inactive); in the assay on SN12C, 18.8 µM (inactive); in the assay on SNB-75 it was 23.1 µM (inactive).

`CC(C)(C)C(=O)C(c1ccc(-c2cscn2)cc1)c1ccc(-c2cscn2)cc1`: the GI50 with 786-0 is 21.5 µM (inactive); in the assay on A498, 21.9 µM (inactive); in the assay with ACHN it was 32 µM (inactive); with CAKI-1, 33.4 µM (inactive); with HCC 2998, > 100 µM (inactive); in the assay on HT-29, 72.3 µM (inactive). Also, the GI50 in the assay on LOX IMVI is > 69.2 µM (inactive); in the assay with Malme-3M, > 56.4 µM (inactive); in the assay with NCI-H522 it was 22.8 µM (inactive); in the assay on OVCAR-4 it was 3.25 µM (inactive); in the assay with OVCAR-8, 16.7 µM (inactive); in the assay with RXF 393, 18.8 µM (inactive). Besides, the GI50 with SF-268 was 25.5 µM (inactive); in the assay with SK-MEL-5, 38.1 µM (inactive); in the assay on SK-OV-3, 29.8 µM (inactive); with SN12C it was 34.7 µM (inactive); in the assay on SNB-75, 6.25 µM (inactive).

On to `COc1cc2c[n+]3ccc4cc(OC)c(OC)cc4c3cc2cc1O`, for which the GI50 with 786-0, with A498, in the assay with ACHN, with HCC 2998, in the assay with HT-29 and in the assay with LOX IMVI was > 100 µM (inactive) in each case. Moreover, the GI50 in the assay with Malme-3M, in the assay on NCI-H522, in the assay on OVCAR-8, with RXF 393, in the assay with SF-268 and in the assay with SK-MEL-5 was > 100 µM (inactive) in each case. Moreover, the GI50 in the assay with SK-OV-3, in the assay with SN12C and with SNB-75 was > 100 µM (inactive) throughout.

Regarding `CCOC(=O)NC(=O)c1cn(CCCOC(=O)NCCCCCCNC(=O)OCCCn2c(=O)c(C(=O)NC(=O)OCC)cn(C)c2=O)c(=O)n(C)c1=O`, the GI50 with 786-0, in the assay on A498, in the assay with ACHN, in the assay on CAKI-1, in the assay on HCC 2998 and in the assay on HT-29 was > 100 µM (inactive) each time. Moreover, the GI50 with LOX IMVI is > 100 µM (inactive); with Malme-3M, > 100 µM (inactive); in the assay with NCI-H522, > 100 µM (inactive); in the assay on OVCAR-4, > 100 µM (inactive); in the assay with OVCAR-8 it was > 100 µM (inactive); with RXF 393 it was 24.8 µM (inactive). The GI50 with SF-268 was > 100 µM (inactive); with SK-OV-3, > 100 µM (inactive); in the assay on SN12C it was > 100 µM (inactive); in the assay with SNB-75, 22.2 µM (inactive).

As to `Nc1ncnc2c1ncn2C1(CO)OC(CO)C(O)C1O` (stereo not drawn), the GI50 with 786-0, with A498, in the assay on ACHN, in the assay with CAKI-1, in the assay with HCC 2998 and in the assay on HT-29 was > 100 µM (inactive) in each case. Moreover, the GI50 with LOX IMVI, in the assay with Malme-3M, with NCI-H522, in the assay with OVCAR-4, in the assay with RXF 393 and in the assay on SF-268 was > 100 µM (inactive) each time. In addition, the GI50 in the assay with SK-MEL-5, in the assay on SK-OV-3, in the assay on SN12C and in the assay with SNB-75 was > 100 µM (inactive) in each case.
